# Measured values: patent US10028992B2, “Methods of treating muscular dystrophy” (BOARD OF REGENTS OF THE NEVADA SYSTEM OF HIGHER EDUCATION …, priority 2012, dated 2018)
# Read-outs that look alike come from different tables or passages of the source.
# Test system: α7 integrin promoter
# Assay: muscle cell-based assay: α7βgal+/− myoblasts/myotubes, LacZ reporter, β-galactosidase cleavage of FDG
# Parameters: species or system mouse
# Method: An α7 integrin null mouse was produced in which exon 1 of the gene encoding the α7 integrin was replaced by the LacZ reporter. In these mice, all the transcriptional regulatory elements of the α7 integrin promoter were retained, allowing β-galactosidase to report expression of 7 integrin. A primary myoblast cell line (designated α7βgal^+/−) isolated from 10 day old α7^+/− pups were analyzed for the ability of β-galactosidase to report α7 integrin expression. α7βgal^+/− myoblasts were differentiated and subjected to X-gal staining and western analysis (FIGS. 1A and 1B).
# The activity of the α7 integrin promoter was measured by β-galactosidase cleavage of the non-fluorescent compound fluorescein di-β-D-galactopyranoside (FDG) to fluorescein. This assay was used to screen compound libraries to identify molecules that up-regulate α7 integrin expression in muscle.
# Also evaluated was the effect of various isoforms of laminin and the ligand for α7β1 integrin on integrin expression. Positive hits were subjected to dose-response analysis, western analysis and a myostatin counterscreen (a negative regulator of muscle growth).
# [1] = Mus musculus; Table 12; log of AC50, given with negative sign; unit of AC50 not given; read-out: Fit Log AC50 (converted)
# [2] = Mus musculus; read-out: Max Response [%]
# [3] = Table 12; fitted activity at zero concentration
# [4] = Table 12 Compound data; concentration-response curve fit
structure (smiles),measurement,setting,value
Cc1ccc(C2Nc3cccc4cccc(c34)N2)s1 [Compound 24],AC50,[1],3.16 µM
same,Emax,[2],81.3%
same,Fit HillSlope,Table 12; curve fit,2.1211
same,Fit Zero Activity [%],[3],5.7274%
same,Fit Curve Class,Table 12; key not given,1.1
same,Score,[4],84
COc1cc(=O)n(C)c2ccccc12 [Compound 25],AC50,[1],2.24 µM
same,Emax,[2],63%
same,Fit HillSlope,Table 12; curve fit,1.6604
same,Fit Zero Activity [%],[3],−18.7854%
same,Fit Curve Class,Table 12; key not given,1.1
same,Score,[4],84
CCOC(=O)c1sc(=N)n(-c2ccc(OC)cc2)c1C [Compound 26],AC50,[1],2 µM
same,Emax,[2],56.1%
same,Fit HillSlope,Table 12; curve fit,1.1
same,Fit Zero Activity [%],[3],−36.1807%
same,Fit Curve Class,Table 12; key not given,1.1
same,Score,[4],84
Cc1ccc(OCC(=O)N2CCN(S(=O)(=O)c3ccc4c(c3)OCCO4)CC2)c(C)c1 [Compound 27],AC50,[1],2 µM
same,Emax,[2],53.8%
same,Fit HillSlope,Table 12; curve fit,2.2526
same,Fit Zero Activity [%],[3],−26.8995%
same,Fit Curve Class,Table 12; key not given,1.1
same,Score,[4],83
CC(NC(=O)c1cn(C)c2ccc(S(=O)(=O)N3CCCC3)cc2c1=O)c1ccccc1 (stereo not shown) [Compound 28],AC50,[1],2.82 µM
same,Emax,[2],54.7%
same,Fit HillSlope,Table 12; curve fit,2.5334
same,Fit Zero Activity [%],[3],−36.6914%
same,Fit Curve Class,Table 12; key not given,1.1
same,Score,[4],83
Cc1cc(NC(=O)CCC(=O)N(Cc2cccnc2)C(C(=O)NC(C)(C)C)c2ccccc2Cl)no1 (stereo not shown) [Compound 29],AC50,[1],3.98 µM
same,Emax,[2],54.9%
same,Fit HillSlope,Table 12; curve fit,1.7885
same,Fit Zero Activity [%],[3],−25.4387%
same,Fit Curve Class,Table 12; key not given,1.1
same,Score,[4],83
COc1cc(/C=C2/C(=N)N3C(SC)=NSC3=NC2=O)ccc1OC(=O)c1ccco1 [Compound 30],AC50,[1],3.98 µM
same,Emax,[2],73.4%
same,Fit HillSlope,Table 12; curve fit,2.1876
same,Fit Zero Activity [%],[3],−19.157%
same,Fit Curve Class,Table 12; key not given,1.1
same,Score,[4],83
COc1ccccc1CNc1cc(C)ccn1 [Compound 31],AC50,[1],2.51 µM
same,Emax,[2],62.3%
same,Fit HillSlope,Table 12; curve fit,1.9673
same,Fit Zero Activity [%],[3],−24.2621%
same,Fit Curve Class,Table 12; key not given,1.1
same,Score,[4],83
Cc1nn(C(C)(C)C)c(C)c1/C=N/OC(=O)Nc1ccc(Cl)c(Cl)c1 [Compound 32],Curve Description,,Complete
same,Fit Curve Class,,1.1
same,Fit HillSlope,,2.1211
same,Fit Zero Activity [%],,−28.5623%
same,Score,,83
same,AC50,"Mus musculus, read-out: Fit Log AC50 (converted)",2.82 µM
same,Emax,"Mus musculus, read-out: Max Response [%]",59.8%
CCOC(=O)C1CCCN(C(=O)CNS(=O)(=O)c2ccc(Br)s2)C1 (stereo not shown) [Compound 33],AC50,[1],2 µM
same,Emax,[2],31.1%
same,Fit HillSlope,Table 12; curve fit,1.1
same,Fit Zero Activity [%],[3],−50.1655%
same,Fit Curve Class,Table 12; key not given,1.1
same,Score,[4],82
CCCCNC(=O)CSc1nnc(Cc2ccc(Cl)c(Cl)c2)c(O)n1 [Compound 34],AC50,[1],1.41 µM
same,Emax,[2],75.4%
same,Fit HillSlope,Table 12; curve fit,1.8851
same,Fit Zero Activity [%],[3],5.9015%
same,Fit Curve Class,Table 12; key not given,1.2
same,Score,[4],65
O=Cc1ccc(C(=O)OCC(=O)N2CCCC2)cc1 [Compound 35],Activity at 0.307 μM [%] **,0.307 μM,0%
same,AC50,[1],2.51 µM
same,Emax,[2],71.8%
same,Fit HillSlope,Table 12; curve fit,3.132
same,Fit Zero Activity [%],[3],−0.1751%
same,Fit Curve Class,Table 12; key not given,1.2
same,Score,[4],64
CC(C)/N=C(\S)NN=C1CCCCCCCCCCC1 [Compound 36],AC50,[1],3.16 µM
same,Emax,[2],78.6%
same,Fit HillSlope,Table 12; curve fit,1.4163
same,Fit Zero Activity [%],[3],5.5%
same,Fit Curve Class,Table 12; key not given,1.2
same,Score,[4],64
COc1ccc(S(=O)(=O)N(NC2=NS(=O)(=O)c3ccccc32)C(=O)C(C)C)cc1 [Compound 37],AC50,[1],2.51 µM
same,Emax,[2],72.9%
same,Fit HillSlope,Table 12; curve fit,2.4064
same,Fit Zero Activity [%],[3],−2.5935%
same,Fit Curve Class,Table 12; key not given,1.2
same,Score,[4],64
C/C(CC(=O)Nc1ccc(Cl)c(C(F)(F)F)c1)=N\NC(=O)c1cnccn1 [Compound 38],AC50,[1],4.47 µM
same,Emax,[2],72.7%
same,Fit HillSlope,Table 12; curve fit,4.9549
same,Fit Zero Activity [%],[3],−2.0156%
same,Fit Curve Class,Table 12; key not given,1.2
same,Score,[4],63
Cc1ccc(-c2onc3ccc(C(=O)/C=C/N(C)C)cc23)cc1 [Compound 39],AC50,[1],3.55 µM
same,Emax,[2],69.1%
same,Fit HillSlope,Table 12; curve fit,1.7529
same,Fit Zero Activity [%],[3],−9.0026%
same,Fit Curve Class,Table 12; key not given,1.2
same,Score,[4],63
Cc1cccn2c(=O)c3cc(C(=O)NC4CCCCC4)n(C)c3nc12 [Compound 40],AC50,[1],14.1 µM
same,Emax,[2],427%
same,Fit HillSlope,Table 12; curve fit,4.5045
same,Fit Zero Activity [%],[3],−3.212%
same,Fit Curve Class,Table 12; key not given,2.1
same,Score,[4],48
COc1ccc(Cl)cc1NC(=O)CC(=O)Nc1cc(Cl)ccc1OC [Compound 41],AC50,[1],14.1 µM
same,Emax,[2],453%
same,Fit HillSlope,Table 12; curve fit,4.5045
same,Fit Zero Activity [%],[3],8.8874%
same,Fit Curve Class,Table 12; key not given,2.1
same,Score,[4],48
COc1cc(/C=C/CN2CCN(Cc3ccc(C)o3)C(CCO)C2)ccc1O (stereo not shown) [Compound 42],Activity at 1.530 μM [%] **,1.530 μM,0%
same,AC50,[1],14.1 µM
same,Emax,[2],481%
same,Fit HillSlope,Table 12; curve fit,4.9549
same,Fit Zero Activity [%],[3],9.6207%
same,Fit Curve Class,Table 12; key not given,2.1
same,Score,[4],48
O=C(Cn1cccc1C(=O)c1ccccc1)NCCCc1ccccc1 [Compound 43],AC50,[1],3.98 µM
same,Emax,[2],131%
same,Fit HillSlope,Table 12; curve fit,0.9
same,Fit Zero Activity [%],[3],0%
same,Fit Curve Class,Table 12; key not given,2.1
same,Score,[4],47
CC(=O)Nc1ccc(N(C(=O)c2cnccn2)C(C(=O)NC2CCCCC2)c2ccc(F)cc2)cc1 (stereo not shown) [Compound 44],AC50,[1],11.2 µM
same,Emax,[2],308%
same,Fit HillSlope,Table 12; curve fit,4.095
same,Fit Zero Activity [%],[3],−17.6073%
same,Fit Curve Class,Table 12; key not given,2.1
same,Score,[4],47
COc1ccc(N2CCCC2)c(NC(=O)c2ccc([N+](=O)[O-])o2)c1 [Compound 46],AC50,[1],7.94 µM
same,Emax,[2],156%
same,Fit HillSlope,Table 12; curve fit,1.01
same,Fit Zero Activity [%],[3],−35.6022%
same,Fit Curve Class,Table 12; key not given,2.1
same,Score,[4],46
CC(=O)Nc1ccc(NC(=O)[C@@H](NC(=O)c2cccc(C)c2)C(C)C)cc1 [Compound 47],AC50,[1],5.62 µM
same,Emax,[2],142%
same,Fit HillSlope,Table 12; curve fit,1.331
same,Fit Zero Activity [%],[3],12.5272%
same,Fit Curve Class,Table 12; key not given,2.1
same,Score,[4],46
O=C(O)c1cc(/N=C/c2c(O)oc3ccccc3c2=O)ccc1O [Compound 48],AC50,[1],7.08 µM
same,Emax,[2],165%
same,Fit HillSlope,Table 12; curve fit,1.7137
same,Fit Zero Activity [%],[3],−35.4511%
same,Fit Curve Class,Table 12; key not given,2.1
same,Score,[4],46
O=[N+]([O-])c1ccc(N2CCN(c3ccccc3F)CC2)nc1 [Compound 49],AC50,[1],5.62 µM
same,Emax,[2],151%
same,Fit HillSlope,Table 12; curve fit,1.9282
same,Fit Zero Activity [%],[3],2.973%
same,Fit Curve Class,Table 12; key not given,2.1
same,Score,[4],46
O=C1SC(Cc2ccccc2)C(=O)N1c1ccccc1 (stereo not shown) [Compound 50],AC50,[1],7.94 µM
same,Emax,[2],176%
same,Fit HillSlope,Table 12; curve fit,1.8851
same,Fit Zero Activity [%],[3],5.0579%
same,Fit Curve Class,Table 12; key not given,2.1
same,Score,[4],46
Cc1ccc(NCc2nnc(SCC(=O)Nc3nnc(C)s3)n2C)cc1 [Compound 51],AC50,[1],10 µM
same,Emax,[2],249%
same,Fit HillSlope,Table 12; curve fit,4.9549
same,Fit Zero Activity [%],[3],−23.8252%
same,Fit Curve Class,Table 12; key not given,2.1
same,Score,[4],46
CC1CCCCN1c1ncnc(N)c1[N+](=O)[O-] (stereo not shown) [Compound 52],AC50,[1],4.47 µM
same,Emax,[2],130%
same,Fit HillSlope,Table 12; curve fit,1.4781
same,Fit Zero Activity [%],[3],−27.7073%
same,Fit Curve Class,Table 12; key not given,2.1
same,Score,[4],46
O=C(Nc1ccc(Cl)cc1N1CCOCC1)C1CCCCC1 [Compound 53],Activity at 0.307 μM [%] **,0.307 μM,0%
same,AC50,[1],7.08 µM
same,Emax,[2],119%
same,Fit HillSlope,Table 12; curve fit,0.8
same,Fit Zero Activity [%],[3],−11.267%
same,Fit Curve Class,Table 12; key not given,2.1
same,Score,[4],45
CCCn1c(-c2cc(OC)c(OC)c(OC)c2)nc2c1c(=O)[nH]c(=O)n2Cc1ccccc1 [Compound 54],AC50,[1],12.6 µM
same,Fit HillSlope,Table 12; curve fit,1.1341
same,Fit Zero Activity [%],[3],39.3368%
same,Fit Curve Class,Table 12; key not given,2.1
same,Score,[4],45
CS(=O)(=O)c1ccc(Cl)c(NC(=O)CSc2nncn2-c2ccccc2)c1 [Compound 55],AC50,[1],12.6 µM
same,Fit HillSlope,Table 12; curve fit,4.9549
same,Fit Zero Activity [%],[3],−18.4203%
same,Fit Curve Class,Table 12; key not given,2.1
same,Score,[4],45
CC(C)(CC(=O)O)CC(=O)N1CCCN(c2nccc(C(F)(F)F)n2)CC1 [Compound 56],AC50,[1],3.98 µM
same,Fit HillSlope,Table 12; curve fit,1.5095
same,Fit Zero Activity [%],[3],21.8862%
same,Fit Curve Class,Table 12; key not given,2.1
same,Score,[4],45
COc1cc(CNCc2ccc(C(=O)O)cc2)ccc1OCc1ccc(F)cc1.Cl [Compound 57],AC50,[1],4.47 µM
same,Fit HillSlope,Table 12; curve fit,1.7529
same,Fit Zero Activity [%],[3],−0.5596%
same,Fit Curve Class,Table 12; key not given,2.1
same,Score,[4],45
COc1ccc(Nc2ncnc3ccc(C)cc23)cc1 [Compound 58],AC50,[1],3.55 µM
same,Fit HillSlope,Table 12; curve fit,0.9
same,Fit Zero Activity [%],[3],−42.3624%
same,Fit Curve Class,Table 12; key not given,2.1
same,Score,[4],45
COc1ccc(-n2c(C)c(C(C)=O)c3cc(OC(C)=O)ccc32)cc1 [Compound 59],AC50,[1],10 µM
same,Fit HillSlope,Table 12; curve fit,3.5722
same,Fit Zero Activity [%],[3],−3.6299%
same,Fit Curve Class,Table 12; key not given,2.1
same,Score,[4],45
